Measurements taken from US20070004660A1, “Synergistic Modulation of Flt3 Kinase Using Alkylquinolines and Alkylquinazolines” (priority 2005, published 2007).

What was measured:
MV-4-11 tumor xenografts = test system: MV-4-11 tumor xenografts
Source text: Dosing was continued for sixteen consecutive days.
Values represent the mean (±sem) of 10 mice per treatment group.

MV4-11 AML cells = test: Cell proliferation assay, single agents and FTI/FLT3 inhibitor combinations, MV4-11; format: cell-based, human
Protocol: Dose responses for the individual compounds alone were determined for each cell line using a standard 72-hour cell proliferation assay (see FIGS. 6.1-6.8). The standard chemotherapeutic agent Cytarabine was used as a control cytotoxic agent in all experiments. […] The FLT3 inhibitors, Compounds A, B, C, D, E, F G and H individually have good potency (sub-micromolar) for the inhibition of FLT3 driven proliferation (compared to the first line cytotoxic agent Cytarabine and Tipifarnib) in cells that depend on FLT3 for growth. Each of these chemically distinct compounds alone has potential for the treatment of disorders related to FLT3, such as FLT3 positive AML. […] The FLT3 inhibitors tested had no effect on THP-1 proliferation. […] (See FIGS. 10.1-10.8 and Tables 1-3, hereafter.)
To statistically evaluate the synergy of a FLT3 inhibitor and an FTI in FLT3 dependent cell lines, dosing combinations were evaluated by the method of Chou and Talalay. See Chou T C, Talalay P. (1984) “Quantitative analysis of dose-effect relationships: the combined effects of multiple drugs or enzyme inhibitors.” Adv Enzyme Regul. 22:27-55. […] Using this method, multiple FTI and FLT3 combinations were evaluated. […]
Cell proliferation assay for MV4-11, Baf3-ITD, Baf3-FLT3 and THP-1 cells. […] Total cell growth is quantified as the difference in luminescent counts (relative light units, RLU) of cell number at Day 0 compared to total cell number at Day 3 (72 hours of growth and/or compound treatment). One hundred percent inhibition of growth is defined as an RLU equivalent to the Day 0 reading. […]
Combination Index Analysis. To determine growth inhibition synergy of a FTI and FLT3 inhibitor combination based on the method of Chou and Talalay (Chou and Talalay. See Chou T C, Talalay P. (1984) “Quantitative analysis of dose-effect relationships: the combined effects of multiple drugs or enzyme inhibitors.” Adv Enzyme Regul. 22:27-55. ), fixed ratio combination dosing with isobolar statistical analysis was performed. […]

Baf3-ITD cells = test: Cell proliferation assay, single agents and FTI/FLT3 inhibitor combinations, Baf3-ITD; format: cell-based, murine; conditions: with single sub-IC50 dose of FLT3 inhibitor Compound A, 50 nM
Protocol: The cell lines that were tested included those that are dependent on FLT3ITD mutant activity for growth (MV4-11 and Baf3-FLT3ITD), FLT3wt activity for growth (Baf3FLT3) and those that grow independent of FLT3 activity (THP-1). […] Baf3-FLT3 and Baf3-FLT3ITD cell lines were obtained from Dr. Michael Henrich and the Oregon Health Sciences University. The Baf3 FLT3 cell lines were created by stable transfection of parental Baf3 cells (a murine B cell lymphoma line dependent on the cytokine IL-3 for growth) with either wild-type FLT3 or FLT3 containing the ITD insertion in the juxatamembrane domain of the receptor resulting in its constitutive activation. […]
To statistically evaluate the synergy of a FLT3 inhibitor and an FTI in FLT3 dependent cell lines, dosing combinations were evaluated by the method of Chou and Talalay. See Chou T C, Talalay P. (1984) “Quantitative analysis of dose-effect relationships: the combined effects of multiple drugs or enzyme inhibitors.” Adv Enzyme Regul. […] Using this method, multiple FTI and FLT3 combinations were evaluated. […]
Cell proliferation assay for MV4-11, Baf3-ITD, Baf3-FLT3 and THP-1 cells. […] Total cell growth is quantified as the difference in luminescent counts (relative light units, RLU) of cell number at Day 0 compared to total cell number at Day 3 (72 hours of growth and/or compound treatment). […]

With Cn1cncc1C(N)(c1ccc(Cl)cc1)c1ccc2c(c1)c(-c1cccc(Cl)c1)cc(=O)n2C (single isomer, unassigned; (+)) [Tipifarnib, (+)-6-[amino(4-chlorophenyl)(1-methyl-1H-imidazol-5-yl)methyl]-4-(3-chlorophenyl)-1-methyl-2(1H)-quinolinone] as the compound, how does the “effect on tumor growth” value (MV-4-11 tumor xenografts; 50 mg/kg po single agent, 16 days) read?
Its value is “ineffective”.

And the overt toxicity (MV-4-11 tumor xenografts; 16-day treatment, either agent alone or in combination)?
Its overt toxicity is “No overt toxicity”.

And the “potency for inhibition of proliferation, single agent” value (MV4-11 AML cells; 72-hour assay, cells that depend on FLT3 for growth (Tipifarnib: depending on the cell type))?
The value was “high nanomolar to high picomolar range”.

And the “increase in potency of Tipifarnib” value (MV4-11 AML cells; with single sub-IC50 dose of FLT3 inhibitor Compound A, 50 nM)?
Its value is “more than 3 fold”.

And the “increase in potency of Tipifarnib” value (Baf3-ITD cells)?
Its value is “more than 3 fold”.
